Among the data in PubChem BioAssay AID1159605 (The Scripps Research Institute Molecular Screening Center, 2016) are IC50 values, retold here.

Activity calls are given as the source filed them.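 Rule for the calls: active = IC50 of 10 µM or lower; inactive = IC50 above 10 µM.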 Where only a bound is given, the exact number is not on record here.

Chain of Mitogen-activated protein kinase kinase kinase 5 (Homo sapiens) (Q99683 whole entry, looked up): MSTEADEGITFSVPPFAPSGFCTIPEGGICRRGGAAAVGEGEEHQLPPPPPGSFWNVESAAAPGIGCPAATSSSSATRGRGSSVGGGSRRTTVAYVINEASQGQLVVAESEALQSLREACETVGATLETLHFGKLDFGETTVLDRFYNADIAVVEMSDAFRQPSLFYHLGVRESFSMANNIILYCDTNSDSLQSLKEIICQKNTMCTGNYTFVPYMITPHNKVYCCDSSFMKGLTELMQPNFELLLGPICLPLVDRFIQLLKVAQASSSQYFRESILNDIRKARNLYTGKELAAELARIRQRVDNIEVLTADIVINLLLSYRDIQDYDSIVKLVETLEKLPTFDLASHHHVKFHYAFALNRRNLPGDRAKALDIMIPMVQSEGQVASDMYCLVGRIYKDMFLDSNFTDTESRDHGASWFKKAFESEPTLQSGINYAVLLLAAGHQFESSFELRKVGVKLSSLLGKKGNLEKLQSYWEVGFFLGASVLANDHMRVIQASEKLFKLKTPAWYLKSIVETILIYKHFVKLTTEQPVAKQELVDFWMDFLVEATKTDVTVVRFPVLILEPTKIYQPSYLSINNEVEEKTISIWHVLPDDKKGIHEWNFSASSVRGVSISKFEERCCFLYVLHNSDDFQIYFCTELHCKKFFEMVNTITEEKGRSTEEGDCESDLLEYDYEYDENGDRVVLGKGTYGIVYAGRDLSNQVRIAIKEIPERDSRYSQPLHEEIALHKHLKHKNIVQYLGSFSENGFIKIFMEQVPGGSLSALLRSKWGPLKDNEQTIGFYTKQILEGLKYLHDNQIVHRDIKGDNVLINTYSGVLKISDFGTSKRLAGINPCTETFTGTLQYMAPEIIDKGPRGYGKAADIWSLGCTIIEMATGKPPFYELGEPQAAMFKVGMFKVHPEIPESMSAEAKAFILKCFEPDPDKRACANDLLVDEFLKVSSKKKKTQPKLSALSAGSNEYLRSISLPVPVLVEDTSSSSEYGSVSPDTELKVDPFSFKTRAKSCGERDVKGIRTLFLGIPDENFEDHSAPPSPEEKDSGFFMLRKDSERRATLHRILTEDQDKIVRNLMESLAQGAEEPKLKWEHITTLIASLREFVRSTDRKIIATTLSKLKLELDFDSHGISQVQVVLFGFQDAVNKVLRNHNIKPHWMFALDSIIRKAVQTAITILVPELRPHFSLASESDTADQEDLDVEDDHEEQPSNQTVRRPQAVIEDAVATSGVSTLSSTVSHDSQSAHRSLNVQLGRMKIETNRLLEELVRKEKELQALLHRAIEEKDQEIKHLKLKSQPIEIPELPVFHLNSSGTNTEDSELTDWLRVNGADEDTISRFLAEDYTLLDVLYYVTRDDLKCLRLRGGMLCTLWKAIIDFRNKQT

The assay has as its target Mitogen-activated protein kinase kinase kinase 5 (Homo sapiens) (UniProt Q99683). The assay can be described thus: ASK1 kinase inhibitor potency, dose response, biochemical, AlphaScreen, MKK6 phosphorylation (AID 1159605).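 Note: ASK1 phosphorylation of MKK6 substrate detected with anti-phospho-MKK6 antibody beads; inhibitors lower the luminescent signal by blocking MKK6 phosphorylation.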 The note with it: AlphaScreen luminescence. (Alpha assays give light when donor and acceptor beads are brought close together.)
As to `c1ccc(-n2cnc3c(Nc4ccc(N5CCOCC5)cc4)nc(Nc4cccnc4)nc32)cc1`, the IC50 – broadly, the point on the concentration scale where inhibition reaches its midpoint – was > 15.9 µM (inactive). In the case of `Cc1cc(NC2CCN(Cc3ccccc3)CC2)nc(Nc2cccc(N(C)C)c2)n1`, the IC50 is > 21.2 µM (inactive).

With `CCN(CC)c1nc(Nc2ccc(N3CCOCC3)cc2)nc(Nc2ccc(-n3ccnc3)cc2)n1`, the IC50 is 8.79 µM. Consider `Cc1ccc(-c2ncn(-c3ccc(Nc4nccc(-c5cncc(N6CCOCC6)c5)n4)cc3)n2)cn1`, for which the IC50 is > 19.2 µM (inactive).

Turning to `Fc1cnc(Nc2ccc(N3CCNCC3)cc2)cc1-n1cnc(Nc2ccccc2)n1`, the IC50 is > 19.2 µM (inactive). With `COc1cc(Nc2nc(N3CCc4ccccc4C3)nc3c2ncn3-c2ccccc2)cc(OC)c1OC`, the IC50 result is “inactive”. On to `Cc1cccc(Nc2ccc3c(cnn3-c3cccc(C(=O)NCCN4CCN(CC5CC5)CC4)c3)c2)c1Cl`, for which the IC50 is > 19.2 µM (inactive). Regarding `FC(F)(F)c1ccc(Cn2cnc3c(Nc4ccc5c(c4)OCO5)nc(NC4CCN(Cc5ccccc5)CC4)nc32)cc1`, the IC50 was > 20.5 µM (inactive).

Consider `Cc1nc(C)n(-c2ccc(Nc3nccc(-c4cccc(-n5cncn5)c4)n3)cc2)n1`, for which the IC50 was > 19.2 µM (inactive). Take `COc1cc(Nc2nc(-c3ccc(C(N)=O)cc3)nc3c2ncn3C2CCCCC2)cc(OC)c1OC`: the IC50 result is “inactive”. With `CCN(CC)c1nc(Nc2ccc3c(c2)OCO3)nc(N2CCC(N3CCOCC3)CC2)n1`, the IC50 entry was “inactive”. For the compound `c1ccc(N2CCN(c3nc(Nc4ccc(N5CCOCC5)cc4)c4ncn(C5CCCCC5)c4n3)CC2)nc1`, the IC50 is > 22.8 µM (inactive). Turning to `COc1cc2nc(Nc3nccc4ccccc34)nc(Nc3ccc(N4CCOCC4)cc3)c2cc1OC`, the IC50 entry was “inactive”. As for `COc1ccc(CCNc2ccnc(Nc3cccc(N(C)C)c3)n2)cc1`, the IC50 is 7.76 µM. Consider `NC(=O)c1ccc(-c2nc(NCc3cccc(C(F)(F)F)c3)c3ncn(-c4ccccc4)c3n2)cc1`, for which the IC50 was > 18 µM (inactive). For `FC(F)(F)c1ccc(Cn2cnc3c(NCc4ccccc4)nc(Nc4ccccc4)nc32)cc1`, the IC50 is > 20.1 µM (inactive). Then `FC(F)(F)c1ccc(Cn2cnc3c(Nc4ccc(N5CCOCC5)cc4)nc(NC4CCN(Cc5ccccc5)CC4)nc32)cc1`, with “inactive”; and `FC(F)(F)c1ccc(Cn2cnc3c(NCc4cccc(C(F)(F)F)c4)nc(Nc4ccc5ncccc5c4)nc32)cc1`, with > 19.8 µM (inactive); and `COc1cc(NC(=O)c2cccc(-n3cc(NC(=O)Nc4c(C)cccc4Cl)cn3)c2)cc(OC)c1OC`, with > 19.2 µM (inactive). For the compound `COc1cc2nc(Nc3cccc(N(C)C)c3)nc(NCCOc3ccccc3)c2cc1OC`, the IC50 was > 20.4 µM (inactive). On to `CN(C)c1cccc(Nc2nc(Nc3ccc(N4CCOCC4)cc3)c3[nH]cnc3n2)c1`, for which the IC50 entry is “inactive”.

Consider `COc1cc(Nc2nc(-c3c(C)noc3C)nc3c2ncn3Cc2ccc(C(F)(F)F)cc2)cc(OC)c1OC`, for which the IC50 is > 27.5 µM (inactive). As for `Cc1cc(NCCOc2ccccc2)nc(Nc2cccc(N(C)C)c2)n1`, the IC50 is 6.99 µM. As to `COc1ccc(-c2nc(C)cc(Nc3ccc(N4CCOCC4)cc3)n2)cc1`, the IC50 is 9.06 µM. On to `CC(C)n1c(Nc2cccc(N(C)C)c2)nc2c(NC3CCN(Cc4ccccc4)CC3)ncnc21`, for which the IC50 is > 18.8 µM (inactive). As to `Cc1nc(C)n(-c2ccc(Nc3nccc(-c4cc(F)cc(-c5cn[nH]c5C)c4)n3)cc2)n1`, the IC50 was > 19.2 µM (inactive). `CCCNc1nc(Nc2ccc(N3CCOCC3)cc2)nc2c1ncn2C1CCCCC1`: the IC50 result was “inactive”. `CC(=O)c1cccc(-c2nc(NCc3ccccc3)c3ncn(Cc4ccc(C(F)(F)F)cc4)c3n2)c1`: the IC50 was > 19.2 µM (inactive). For the compound `O=C(NCCN1CCOCC1)c1cccc(-n2ncc3cc(Nc4c(F)cccc4[N+](=O)[O-])ccc32)c1`, the IC50 is > 19.2 µM (inactive). On to `CN(C)c1cccc(Nc2nc(NCCc3ccc(O)cc3)c3ncn(C4CCCCC4)c3n2)c1`, for which the IC50 was > 20 µM (inactive).

Turning to `COc1ccc(-c2ncn(-c3ccc(Nc4nccc(-c5cc(C#N)cc(N6CCNCC6)c5)n4)cc3)n2)cn1`, the IC50 was > 19.2 µM (inactive). Regarding `CC(C)CNC(=O)c1ccc2c(c1)CC(c1nc3ncc(-c4ccnc(N)n4)cc3[nH]1)CO2` (stereo not given), the IC50 was > 19.2 µM (inactive). Turning to `Cc1cccc(Nc2ccc3c(cnn3-c3cccc(C(=O)NCCN4CCNCC4)c3)c2)c1Cl`, the IC50 was > 19.2 µM (inactive). Then `c1ccc(OCCNc2nc(N3CCN(Cc4ccc5c(c4)OCO5)CC3)nc3c2ncn3C2CCCCC2)cc1`, with “inactive”. Regarding `Cn1ccc2cc(-c3cc(Nc4ccc(N5CCOCC5)cc4)nc(N)n3)ccc21`, the IC50 is > 20 µM (inactive). `Fc1cc(-c2ccnc(Nc3ccc(N4CCOCC4)cc3)n2)cc(N2CCN(C3CC3)CC2)c1`: the IC50 is > 19.2 µM (inactive). `COc1ccc(CCNc2nc(Nc3ccc(N4CCOCC4)cc3)nc3c2ncn3-c2ccsc2)cc1`: the IC50 was 9.53 µM. As to `Nc1cc(C2=C3C=CN=C3C(=O)NCC2)c(O)[nH]1`, the IC50 was > 19.2 µM (inactive). Then `COc1cc2nc(Nc3cccc(N(C)C)c3)nc(Nc3ccccc3)c2cc1OC`, with “inactive”; and `c1cc(Nc2ccc3c(c2)OCO3)nc(N2CCN(Cc3ccc4c(c3)OCO4)CC2)n1`, with > 20.1 µM (inactive); and `c1ccc(-c2ncn[nH]2)c(Nc2ccnc(Nc3ccc(N4CCOCC4)cc3)c2)c1`, with > 19.2 µM (inactive). Then `c1cncc(CNc2nc(Nc3ccc(N4CCOCC4)cc3)nc3c2ncn3C2CCCCC2)c1`, with > 20.1 µM (inactive); and `O=C1CCCN1CCCNc1nc(Nc2ccc(-n3ccnc3)cc2)nc2c1ncn2-c1ccsc1`, with > 19.9 µM (inactive). For the compound `FC(F)(F)c1ccc(Cn2cnc3c(Nc4ccc(N5CCOCC5)cc4)nc(N4CCN(Cc5ccc6c(c5)OCO6)CC4)nc32)cc1`, the IC50 entry was “inactive”.

Regarding `CN(C)c1cccc(Nc2nc(Nc3ccc4c(c3)OCO4)c3ncn(Cc4ccc(C(F)(F)F)cc4)c3n2)c1`, the IC50 result was “inactive”. Take `CN1CCN(c2ncn(-c3ccc(Nc4nccc(-c5cc(C#N)cc(N6CCC(O)CC6)c5)n4)cc3)n2)CC1`: the IC50 was > 19.2 µM (inactive). As to `Cc1c[nH]c2ncnc(-c3ccc(NC(=O)Nc4ccccc4)cc3)c12`, the IC50 was > 19.2 µM (inactive).

Take `Cc1cnc(Nc2ccc(N3CCOCC3)cc2)nc1NCc1cccc(C(F)(F)F)c1`: the IC50 is 8.86 µM. With `CC(C)n1cnc2c(NC3CC3)nc(N3CCN(c4ccccn4)CC3)nc21`, the IC50 entry is “inactive”.

Consider `COc1ccc(CCNC(=O)c2ccnc(Nc3cccc(N(C)C)c3)c2)cc1`, for which the IC50 is > 20 µM (inactive).

On to `Nc1nc(Nc2ccc(N3CCOCC3)cc2)cc(NC2CCN(Cc3ccccc3)CC2)n1`, for which the IC50 was > 23.1 µM (inactive). On to `c1ccc(CN2CCC(Nc3ccnc(Nc4ccc(N5CCOCC5)cc4)n3)CC2)cc1`, for which the IC50 entry is “inactive”. As for `Cc1cc(Nc2ccc3c(c2)OCO3)nc(Nc2cccc(N(C)C)c2)n1`, the figure is 5.32 µM; as for `Cc1cc(Nc2ccc(N3CCOCC3)cc2)nc(Nc2ccccc2)n1`, “inactive”.

Consider `COc1c(-c2cnn(C)c2)ccc2cnc(Nc3ccc(-n4cnc(N5CCOCC5)n4)cc3)nc12`, for which the IC50 is > 19.2 µM (inactive).
